Reference: a melting point compilation (Tetko et al.)

Row | Compound | melting point
1 | COC(CCl)OC | -73 °C
2 | CCCCCOC(=O)C1=C(C)NC(=O)NC1c1ccc2c(c1)OCO2 (stereo unspecified) | 144 °C
3 | CC1=NN(c2ccccc2)C(=O)C1Cc1ccc(O)cc1 (stereo unspecified) | 210 °C
4 | CC(C)=C/C=C/C=N/Nc1ccc([N+](=O)[O-])cc1[N+](=O)[O-] | 205 to 206 °C
5 | Nc1cccc(COc2ccccc2)c1 | 45 to 47 °C
6 | O=C(CBr)c1ccsc1 | 61 to 62 °C
7 | CC(C)(C)C1=CC(=Cc2cc(C(C)(C)C)c(O)c(C(C)(C)C)c2)C=C(C(C)(C)C)C1=O | 156 to 160 °C
8 | C[C@](N)(CO)C(=O)O | 286 to 288 °C
9 | O=C(O)CCCCC1CCSS1 (stereo unspecified) | 60.5 °C
10 | COC(=O)c1sc(SC)c(S(=O)(=O)C(C)C)c1Cl | 141 to 144 °C
11 | O=C1NC(=O)C([N+](=O)[O-])C(=O)N1 | 180 °C
12 | NC(=O)CCCCC1CCSS1 (stereo unspecified) | 128 °C
13 | N#CCOc1ccc(C2=NCCS2)cc1 | 83 to 85 °C
14 | CC(C)(C)C(N)P(=O)(O)O (stereo unspecified) | 245 to 252 °C
15 | Nc1ccc(C(=O)Oc2ccccc2)c(O)c1 | 153 °C
16 | Nc1ccc(S(=O)(=O)Nc2cnccn2)cc1 | 251 °C
17 | Nc1cc2ccccc2cc1O | 235 °C
18 | Cc1cc(C(=O)O)ccc1Br | 216 °C
19 | O=C(O)c1cccc2cccnc12 | 187 °C
20 | CC(C)(C(N)=O)n1nnc2ccccc21 | 187 °C
21 | O=C(O)c1nccc2ccccc12 | 160 to 165 °C
22 | O=S(=O)(Cl)c1c(F)c(Br)cc(F)c1Br | 69 °C
23 | CCCCCCCCOC(=O)CCC | -55.6 °C

Row | Compound | melting point
24 | O=S(=O)(Cl)c1ccc(CBr)cc1 | 74 °C
25 | COc1ccc(N)cc1OC | 88 °C
26 | Cc1ccc(C#N)n1C | 53 to 56 °C
27 | C=C(C)C(=O)O | 16 °C
28 | CC(Cl)C(C)Cl (stereo unspecified) | -80 °C
29 | COc1ccc2c(=O)c(C)c(-c3ccccc3)oc2c1CN(C)C | 110 °C
30 | Cc1c(C#N)c(N)n(Cc2c(Cl)cccc2Cl)c1C | 194 to 196 °C
31 | NC(=O)Cc1ccc(F)cc1Cl | 171 to 173 °C
32 | Fc1ccc(P(c2ccc(F)cc2)c2ccc(F)cc2)cc1 | 80 °C
33 | OCc1cc(O)ccc1I | 146 to 148 °C
34 | O=C(O)c1cnccc1Cl | 200 to 215 °C
35 | CCCCOCCOCCOC(C)=O | -32 °C
36 | O=C(CBr)c1ccc(N2CCOCC2)cc1 | 112 to 115 °C
37 | Cc1nc2ccccc2nc1C | 105 °C
38 | CC(CCCO)C1CCC2C3CCC4CCCCC4(C)C3CCC12C (stereo unspecified) | 130 °C
39 | C=C1CCC1 | -135 °C
40 | COC(=O)C1C2CC3c4[nH]c5ccccc5c4CCN3CC2CC(OC(=O)c2cc(OC)c(OC)c(OC)c2)C1OC (stereo unspecified) | 230 °C
41 | CC1=CCC2C(C)(C)CCCC2(C)C12CCC(C)(CC(=O)O)O2 (stereo unspecified) | 100 °C
42 | COC1=CC(=O)CC(C)C12Oc1c(Cl)c(OC)cc(OC)c1C2=O (stereo unspecified) | 219 °C
43 | Nc1nc(Cl)c2nc[nH]c2n1 | 300 °C
44 | CC1=CC(=O)C(C(C)C)=CC1=O | 45.5 °C
45 | Cc1cc(C(=O)O)nn1C | 175 to 178 °C
46 | Cc1cccc(N=Nc2ccc(N(C)C)cc2)c1 | 138 °C

Row | Compound | melting point
47 | CC(C)(OO)c1ccccc1 | -9 °C
48 | O=C(OCC1CC1)c1cnc(Cl)nc1C(F)(F)F | 108 to 110 °C
49 | Nc1ccc(Cn2cccn2)cc1 | 67 to 69 °C
50 | CC(=O)c1c(Cl)cccc1Cl | 43 °C
51 | c1ccc(-c2nsc(N3CCCNCC3)n2)cc1 | 82 to 83 °C
52 | Cc1ccncc1[N+](=O)[O-] | 20 °C
53 | CC(C)(C)c1ccc(S)cc1 | -11 °C
54 | Oc1ccc(Br)cn1 | 180 °C
55 | CC(=O)Nc1cccc(N=[N+]([O-])c2cccc(NC(C)=O)c2)c1 | 254 °C
56 | CCC(=O)Cl | -94 °C
57 | O=C(O)c1ncccc1N1CCCCC1 | 102 to 109 °C
58 | Cc1cc(C(=O)NN)[nH]n1 | 157 to 158 °C
59 | C#CC1(O)c2ccccc2-c2ccccc21 | 110 °C
60 | CC(CN(C)C)CN1c2ccccc2CCc2ccccc21 (stereo unspecified) | 45 °C
61 | S=C=NC(c1ccccc1)(c1ccccc1)c1ccccc1 | 138 to 140 °C
62 | CC(=O)c1cc(F)cc(F)c1O | 109 to 110 °C
63 | CCCCCCCCCCCCOc1ccc(N=Cc2ccc(N(C)C)cc2)cc1 | 94.5 °C
64 | N#C/C(=C\c1cccs1)c1nc(-c2cccc3ccccc23)cs1 | 205 to 207 °C
65 | CC(C)OC(=O)C1(S(=O)(=O)c2ccc([N+](=O)[O-])cc2)CCC1 | 65.5 °C
66 | O=c1nc2ccccc2nc(C(F)(F)F)c1NNc1ccc(Cl)cc1 | 151 °C
67 | NC(CC(=O)O)C1CCCCC1 (stereo unspecified) | 234 to 235 °C
68 | Cc1cc(Br)cc(Cl)c1O | 45 to 47 °C
69 | COC(=O)c1ccc(N=C=S)cc1 | 48 °C

Row | Compound | melting point
70 | CCOC(=O)c1cc(Cl)c(O)c(Cl)c1 | 111 °C
71 | OCc1cccc2nonc12 | 72 °C
72 | O=[N+]([O-])c1ccc(-c2ccc(-c3ccc([N+](=O)[O-])cc3)cc2)cc1 | 278 °C
73 | O=[N+]([O-])c1coc2ccc(O)cc12 | 164 to 165 °C
74 | CSc1cc2c(c3c1CCOc1ccccc1-3)c(=O)n(-c1ccccc1)n2C | 176 °C
75 | O=C(Cl)c1nccs1 | 54 to 58 °C
76 | CCCCCCC(=O)c1ccccc1 | 16.4 °C
77 | Cc1nc(N)ccc1C#N | 155 to 156 °C
78 | COc1cc2c(cc1O)C=NCC2 | 187 to 191 °C
79 | CCCOC(=O)C1=C(C)NC(C)=C(C(=O)OCCC)C1c1ccccc1 | 119 °C
80 | N#C/C(=C\c1ccc(Cl)cc1)c1nc(-c2cccc3ccccc23)cs1 | 130 °C
81 | CC(C)CC=O | -51 °C
82 | CCC(O)c1ccc(-c2ccccc2F)cc1 (stereo unspecified) | 55 to 56 °C
83 | Cc1cc(Br)c(O)c(Br)c1 | 50 °C
84 | CCCCOCCOCCO | -68 °C
85 | Cc1ccc([N+](=O)[O-])cc1S(=O)(=O)O | 133 °C
86 | CC(C(C#N)C(N)=O)C(C#N)C(N)=O (stereo unspecified) | 151 to 160 °C
87 | CNCCOC(=O)C=C1CCC2C(C(O)CC3C(C)(C(=O)OC)CCCC23C)C1C (stereo unspecified) | 115 °C
88 | CCNc1nc(NC(C)(C)C)nc(OC)n1 | 124 °C
89 | O=C(O)c1ccc(O)nn1 | 246 to 247 °C
90 | NC(CO)(Cc1ccccc1)C(=O)O (racemic) | 245 to 263 °C
91 | O=C(O)c1csc(-c2cccnc2)n1 | 283 to 284 °C
92 | CCCCCCCCCCCC[N+]1=C(C=Cc2cc([N+](=O)[O-])cc([N+](=O)[O-])c2[O-])C(C)(C)c2ccccc21 | 138 °C

Row | Compound | melting point
93 | O=C(Cl)c1ccc(-c2ncccn2)cc1 | 172 to 175 °C
94 | COC(=O)c1ccc(O)c(O)c1 | 136 °C
95 | N#Cc1cccc(F)n1 | 34 °C
96 | CCCCc1cccc2ccccc12 | -19.8 °C
97 | OC1CN(C(c2ccccc2)c2ccccc2)C1 | 106 to 111 °C
98 | COC(=O)c1ccc(C(=O)OC)nc1 | 163 to 164 °C
99 | c1ccc(-c2nc3ccccc3nc2-c2cccc3ccccc23)cc1 | 138 °C
100 | O=Nc1c(-c2ccc3ccccc3c2)nc2ncccn12 | 249 °C
101 | C=C(CC(=O)O)C(=O)O | 175 °C
102 | NC1=NC(=O)C(c2ccccc2)O1 (stereo unspecified) | 256 °C
103 | O=C(O)c1cc(Cl)sc1Cl | 148 °C
104 | O=C(O)C1CC2CCC1C2 (stereo unspecified) | 40 °C
105 | Cc1cc(Br)c(N)c(C(=O)O)c1 | 204 °C
106 | O=C(c1ccc2c(c1)C(=O)OC2=O)c1ccc2c(c1)C(=O)OC2=O | 219 to 226 °C
107 | COc1ccc(C=NC2=NC(C(F)(F)F)N=N2)cc1 (stereo unspecified) | 172 °C
108 | CN(C)c1cccc2oc3c(cnn3-c3ccccc3)c(=O)c12 | 184 to 186 °C
109 | NC(CO)C(=O)O (racemic) | 240 °C
110 | O=[N+]([O-])c1cccc2cccc(/C=N\c3ccccc3)c12 | 114 to 115 °C
111 | N#Cc1ccc(O)c(F)c1F | 147 °C
112 | Nc1cc(C(F)(F)F)cc(Cl)c1N | 42 to 43 °C
113 | COC(=O)c1cscc1N | 35 to 38 °C
114 | O=C(Cl)C=Cc1ccccc1 | 36 °C
115 | Nc1ccc(O)cc1C(=O)O | 233 to 234 °C

Row | Compound | melting point
116 | CC(=O)c1ccc(C#N)c(S)n1 | 210 °C
117 | NC(=O)/C(=C\c1ccccc1O)c1nc2ccccc2s1 | 210 °C
118 | NC(=O)c1ccc2ccccc2c1 | 195 °C
119 | CC(=O)c1cc(Cl)ccc1O | 53 to 56 °C
120 | CN(C)c1ccccc1C(=O)O | 72 °C
121 | O=CF | -142 °C
122 | Cc1n[nH]c(SCC(=O)c2ccc(Cl)cc2)n1 | 185 to 188 °C
123 | C1CSCS1 | -50 °C
124 | COc1cc2c(cc1OC)C(c1ccccc1[N+](=O)[O-])N(C(C)=O)CC2 (stereo unspecified) | 132 to 134 °C
125 | CC(=O)c1cc2c(cc1C)C(C)(C)C(C)CC2(C)C (stereo unspecified) | 54.5 °C
126 | CCCCCCCCC=CCCCCCCCC(=O)OC | 9.5 °C
127 | O=CN(C=O)N(C=O)C=O | 180 to 183 °C
128 | O=C1OS(=O)(=O)c2c(Br)c(Br)c(Br)c(Br)c21 | 215 to 220 °C
129 | Cc1ccc(Br)c([N+](=O)[O-])c1 | 31 °C
130 | COc1cccc(O)c1C=O | 71 °C
131 | NS(=O)(=O)c1ccc(F)c(C(F)(F)F)c1 | 162 °C
132 | Cc1nc2scc(-c3ccccc3)c2c(=O)n1NC(=O)c1ccccc1Cl | 209 to 210 °C
133 | O=Cc1ccc(Cl)cc1F | 59 °C
134 | COC(=O)C(=O)CC(C)=O | 63 to 64 °C
135 | Cc1ccccc1N1CCN(CCc2nnc3n2CCCC3)CC1 | 158 °C
136 | Cc1c(C)c([N+](=O)[O-])c(C(C)(C)C)c([N+](=O)[O-])c1C | 136 °C
